From PubChem BioAssay (NCI)
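All cell lines were grown in 96-well plates and treated with compound for 48 hours. At the TGI there is no net growth.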

Assays:
Experiment in all cases: NCI-60 cell line screen, 48 h
EKVX NSCLC = tested on: EKVX NSCLC
K-562 leukemia = tested on: K-562 leukemia
A498 renal = tested on: A498 renal
HL-60(TB) leukemia = tested on: HL-60(TB) leukemia
HCT-15 colon = tested on: HCT-15 colon
MDA-MB-231 breast = tested on: MDA-MB-231 breast
NCI-H23 lung = tested on: NCI-H23 lung
MDA-MB-435 = tested on: MDA-MB-435
SNB-19 CNS = tested on: SNB-19 CNS
NCI-H522 lung = tested on: NCI-H522 lung
SN12C renal = tested on: SN12C renal
SF-539 CNS = tested on: SF-539 CNS
COLO 205 colon = tested on: COLO 205 colon
A549 NSCLC = tested on: A549 NSCLC
MDA-N = tested on: MDA-N
RXF 393 renal = tested on: RXF 393 renal
HT29 colon = tested on: HT29 colon
HS 578T breast = tested on: HS 578T breast
SF-268 CNS = tested on: SF-268 CNS
HOP-62 NSCLC = tested on: HOP-62 NSCLC
DU-145 prostate = tested on: DU-145 prostate
NCI-H226 lung = tested on: NCI-H226 lung
UACC-62 melanoma = tested on: UACC-62 melanoma
UACC-257 melanoma = tested on: UACC-257 melanoma
PC-3 prostate = tested on: PC-3 prostate
HOP-92 NSCLC = tested on: HOP-92 NSCLC
M14 melanoma = tested on: M14 melanoma
IGROV1 ovarian = tested on: IGROV1 ovarian
OVCAR-5 ovarian = tested on: OVCAR-5 ovarian
NCI/ADR-RES ovarian = tested on: NCI/ADR-RES ovarian
TK-10 renal = tested on: TK-10 renal
LOX IMVI melanoma = tested on: LOX IMVI melanoma
UO-31 renal = tested on: UO-31 renal
RPMI-8226 leukemia = tested on: RPMI-8226 leukemia
BT-549 breast = tested on: BT-549 breast
SK-MEL-28 melanoma = tested on: SK-MEL-28 melanoma
SR leukemia = tested on: SR leukemia
SNB-75 CNS = tested on: SNB-75 CNS
786-0 renal = tested on: 786-0 renal
SK-MEL-5 melanoma = tested on: SK-MEL-5 melanoma
CAKI-1 renal = tested on: CAKI-1 renal
SW-620 colon = tested on: SW-620 colon
OVCAR-3 ovarian = tested on: OVCAR-3 ovarian
SK-OV-3 ovarian = tested on: SK-OV-3 ovarian
OVCAR-8 ovarian = tested on: OVCAR-8 ovarian
U251 CNS = tested on: U251 CNS
MOLT-4 leukemia = tested on: MOLT-4 leukemia
MCF7 breast = tested on: MCF7 breast
KM12 colon = tested on: KM12 colon
ACHN renal = tested on: ACHN renal
T-47D breast = tested on: T-47D breast
SK-MEL-2 melanoma = tested on: SK-MEL-2 melanoma
HCT-116 colon = tested on: HCT-116 colon
NCI-H460 lung = tested on: NCI-H460 lung
MALME-3M melanoma = tested on: MALME-3M melanoma
OVCAR-4 ovarian = tested on: OVCAR-4 ovarian
SF-295 CNS = tested on: SF-295 CNS

Measured: TGI

CC(=O)Nc1nc2ncc(C=O)nc2c(=O)[nH]1
> 100 µM: EKVX NSCLC | K-562 leukemia | A498 renal | HL-60(TB) leukemia | HCT-15 colon | MDA-MB-231 breast | NCI-H23 lung | MDA-MB-435 | SNB-19 CNS | NCI-H522 lung | SN12C renal | SF-539 CNS | COLO 205 colon | A549 NSCLC | MDA-N | RXF 393 renal | HT29 colon | HS 578T breast | SF-268 CNS | HOP-62 NSCLC | DU-145 prostate | NCI-H226 lung | UACC-62 melanoma | UACC-257 melanoma | PC-3 prostate | HOP-92 NSCLC | M14 melanoma | IGROV1 ovarian | OVCAR-5 ovarian | NCI/ADR-RES ovarian | TK-10 renal | LOX IMVI melanoma | UO-31 renal | RPMI-8226 leukemia | BT-549 breast | SK-MEL-28 melanoma | SR leukemia | SNB-75 CNS | 786-0 renal | SK-MEL-5 melanoma | CAKI-1 renal | SW-620 colon | OVCAR-3 ovarian | SK-OV-3 ovarian | OVCAR-8 ovarian | U251 CNS | MOLT-4 leukemia | MCF7 breast | KM12 colon | ACHN renal | T-47D breast | SK-MEL-2 melanoma | HCT-116 colon | NCI-H460 lung | MALME-3M melanoma | OVCAR-4 ovarian | SF-295 CNS

O=C(O)/C=C/C=C/c1ccc2c(c1)OCO2
> 100 µM: EKVX NSCLC | K-562 leukemia | A498 renal | HL-60(TB) leukemia | HCT-15 colon | MDA-MB-231 breast | NCI-H23 lung | MDA-MB-435 | SNB-19 CNS | NCI-H522 lung | SN12C renal | SF-539 CNS | COLO 205 colon | A549 NSCLC | MDA-N | RXF 393 renal | HT29 colon | HS 578T breast | SF-268 CNS | HOP-62 NSCLC | DU-145 prostate | NCI-H226 lung | UACC-62 melanoma | UACC-257 melanoma | PC-3 prostate | HOP-92 NSCLC | M14 melanoma | IGROV1 ovarian | OVCAR-5 ovarian | NCI/ADR-RES ovarian | TK-10 renal | LOX IMVI melanoma | UO-31 renal | RPMI-8226 leukemia | BT-549 breast | SK-MEL-28 melanoma | SR leukemia | SNB-75 CNS | 786-0 renal | SK-MEL-5 melanoma | CAKI-1 renal | SW-620 colon | OVCAR-3 ovarian | SK-OV-3 ovarian | OVCAR-8 ovarian | U251 CNS | MOLT-4 leukemia | MCF7 breast | KM12 colon | ACHN renal | T-47D breast | SK-MEL-2 melanoma | HCT-116 colon | NCI-H460 lung | MALME-3M melanoma | OVCAR-4 ovarian | SF-295 CNS

C=C(C)c1ccccc1 (tested in a mixture with another compound)
> 100 µM: EKVX NSCLC | K-562 leukemia | A498 renal | HL-60(TB) leukemia | HCT-15 colon | MDA-MB-231 breast | NCI-H23 lung | MDA-MB-435 | SNB-19 CNS | NCI-H522 lung | SN12C renal | SF-539 CNS | COLO 205 colon | A549 NSCLC | MDA-N | RXF 393 renal | HT29 colon | HS 578T breast | SF-268 CNS | HOP-62 NSCLC | DU-145 prostate | NCI-H226 lung | UACC-62 melanoma | UACC-257 melanoma | PC-3 prostate | HOP-92 NSCLC | M14 melanoma | IGROV1 ovarian | OVCAR-5 ovarian | NCI/ADR-RES ovarian | TK-10 renal | LOX IMVI melanoma | UO-31 renal | RPMI-8226 leukemia | BT-549 breast | SK-MEL-28 melanoma | SR leukemia | SNB-75 CNS | 786-0 renal | SK-MEL-5 melanoma | CAKI-1 renal | SW-620 colon | OVCAR-3 ovarian | SK-OV-3 ovarian | OVCAR-8 ovarian | U251 CNS | MOLT-4 leukemia | MCF7 breast | KM12 colon | ACHN renal | T-47D breast | SK-MEL-2 melanoma | HCT-116 colon | NCI-H460 lung | MALME-3M melanoma | OVCAR-4 ovarian | SF-295 CNS
